Our source for the Ki values is ChEMBL document CHEMBL5442175, “EUbOPEN Chemogenomics Library - PDSP Secondary Binding” (2024).

The target of assay [1] is Sodium-dependent serotonin transporter (Homo sapiens, UniProt P31645). Description: PDSP Secondary Binding target: SLC6A4 - Compounds are tested at 10 uM concentration, plate are incubated at room temperature in the dark for 90 minutes. Reaction are stopped by vacuum filtration onto 0.3% polyethyleneimine soaked filter mats using Filtermate harvester. Scintillation cocktail is then melted onto microwave-dried filters on a hot plate and the radio activity is counted in Microbia counter.
Sodium-dependent serotonin transporter, sequence (P31645 whole entry): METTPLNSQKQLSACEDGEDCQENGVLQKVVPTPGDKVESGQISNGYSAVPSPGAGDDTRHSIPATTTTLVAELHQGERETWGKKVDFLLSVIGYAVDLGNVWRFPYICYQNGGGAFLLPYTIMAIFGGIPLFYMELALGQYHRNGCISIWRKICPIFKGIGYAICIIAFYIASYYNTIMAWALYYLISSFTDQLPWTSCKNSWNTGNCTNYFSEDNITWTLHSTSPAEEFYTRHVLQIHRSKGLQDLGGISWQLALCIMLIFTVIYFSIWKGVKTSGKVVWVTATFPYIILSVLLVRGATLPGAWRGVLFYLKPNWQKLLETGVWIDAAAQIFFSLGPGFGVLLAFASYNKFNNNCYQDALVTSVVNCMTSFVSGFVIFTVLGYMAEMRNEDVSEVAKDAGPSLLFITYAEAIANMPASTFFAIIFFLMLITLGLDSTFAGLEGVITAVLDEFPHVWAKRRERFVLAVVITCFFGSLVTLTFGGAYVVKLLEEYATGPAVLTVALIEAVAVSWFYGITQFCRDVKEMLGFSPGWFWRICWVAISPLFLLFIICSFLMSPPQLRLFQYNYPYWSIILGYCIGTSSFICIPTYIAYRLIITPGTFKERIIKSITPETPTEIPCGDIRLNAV

Assay [2] addresses Histamine H3 receptor (Homo sapiens, UniProt Q9Y5N1). Description: PDSP Secondary Binding target: HRH3 - Compounds are tested at 10 uM concentration, plate are incubated at room temperature in the dark for 90 minutes. Reaction are stopped by vacuum filtration onto 0.3% polyethyleneimine soaked filter mats using Filtermate harvester. Scintillation cocktail is then melted onto microwave-dried filters on a hot plate and the radio activity is counted in Microbia counter.

The target in assay [3] is T1, Muscarinic acetylcholine receptor M4 (Homo sapiens, UniProt P08173).
T1 sequence (P08173 whole entry): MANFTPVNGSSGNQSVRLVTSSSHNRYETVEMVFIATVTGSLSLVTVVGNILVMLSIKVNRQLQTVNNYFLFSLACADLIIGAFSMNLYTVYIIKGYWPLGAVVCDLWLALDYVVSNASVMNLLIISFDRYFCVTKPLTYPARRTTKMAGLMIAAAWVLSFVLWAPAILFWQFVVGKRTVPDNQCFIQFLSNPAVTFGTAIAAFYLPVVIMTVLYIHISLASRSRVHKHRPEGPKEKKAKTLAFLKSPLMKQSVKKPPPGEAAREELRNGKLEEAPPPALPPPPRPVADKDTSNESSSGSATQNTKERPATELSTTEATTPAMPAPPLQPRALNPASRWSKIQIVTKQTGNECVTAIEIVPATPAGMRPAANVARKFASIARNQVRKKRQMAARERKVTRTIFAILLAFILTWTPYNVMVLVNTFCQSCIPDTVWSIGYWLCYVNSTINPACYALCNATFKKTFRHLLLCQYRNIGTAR
Description: PDSP Secondary Binding target: CHRM4 - Compounds are tested at 10 uM concentration, plate are incubated at room temperature in the dark for 90 minutes. Reaction are stopped by vacuum filtration onto 0.3% polyethyleneimine soaked filter mats using Filtermate harvester. Scintillation cocktail is then melted onto microwave-dried filters on a hot plate and the radio activity is counted in Microbia counter.

The target of assay [4] is T2, 5-hydroxytryptamine receptor 3A (Homo sapiens, UniProt P46098).
T2 sequence (P46098 whole entry): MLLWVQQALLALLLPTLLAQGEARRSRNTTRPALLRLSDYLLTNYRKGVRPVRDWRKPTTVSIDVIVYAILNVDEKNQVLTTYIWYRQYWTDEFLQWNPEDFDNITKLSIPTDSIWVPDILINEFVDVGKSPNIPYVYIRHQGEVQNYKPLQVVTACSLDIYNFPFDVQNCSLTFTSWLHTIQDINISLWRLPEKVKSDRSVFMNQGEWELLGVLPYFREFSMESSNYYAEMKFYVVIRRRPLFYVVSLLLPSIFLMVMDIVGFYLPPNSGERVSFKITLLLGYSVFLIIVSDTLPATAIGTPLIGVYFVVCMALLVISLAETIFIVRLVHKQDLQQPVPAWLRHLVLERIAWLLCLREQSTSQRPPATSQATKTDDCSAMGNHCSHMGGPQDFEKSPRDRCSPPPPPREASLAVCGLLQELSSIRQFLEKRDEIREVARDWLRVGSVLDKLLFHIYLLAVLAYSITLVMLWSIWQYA
Description: PDSP Secondary Binding target: HTR3A - Compounds are tested at 10 uM concentration, plate are incubated at room temperature in the dark for 90 minutes. Reaction are stopped by vacuum filtration onto 0.3% polyethyleneimine soaked filter mats using Filtermate harvester. Scintillation cocktail is then melted onto microwave-dried filters on a hot plate and the radio activity is counted in Microbia counter.

In assay [5] the target is T3, 5-hydroxytryptamine receptor 1A (Homo sapiens, UniProt P08908).
T3 sequence (P08908 whole entry): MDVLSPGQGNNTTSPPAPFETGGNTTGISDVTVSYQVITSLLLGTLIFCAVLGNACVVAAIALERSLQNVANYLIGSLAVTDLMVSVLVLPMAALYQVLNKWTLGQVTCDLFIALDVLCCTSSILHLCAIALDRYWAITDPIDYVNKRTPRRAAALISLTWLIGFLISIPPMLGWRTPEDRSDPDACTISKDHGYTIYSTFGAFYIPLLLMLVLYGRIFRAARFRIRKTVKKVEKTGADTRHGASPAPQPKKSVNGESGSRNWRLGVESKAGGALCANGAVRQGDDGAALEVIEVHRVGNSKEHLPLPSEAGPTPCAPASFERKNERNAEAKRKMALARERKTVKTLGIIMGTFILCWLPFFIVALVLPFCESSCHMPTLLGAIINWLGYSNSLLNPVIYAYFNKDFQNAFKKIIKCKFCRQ
Description: PDSP Secondary Binding target: HTR1A - Compounds are tested at 10 uM concentration, plate are incubated at room temperature in the dark for 90 minutes. Reaction are stopped by vacuum filtration onto 0.3% polyethyleneimine soaked filter mats using Filtermate harvester. Scintillation cocktail is then melted onto microwave-dried filters on a hot plate and the radio activity is counted in Microbia counter.

Assay [6] has as its target 5-hydroxytryptamine receptor 1E (Homo sapiens, UniProt P28566). Description: PDSP Secondary Binding target: HTR1E - Compounds are tested at 10 uM concentration, plate are incubated at room temperature in the dark for 90 minutes. Reaction are stopped by vacuum filtration onto 0.3% polyethyleneimine soaked filter mats using Filtermate harvester. Scintillation cocktail is then melted onto microwave-dried filters on a hot plate and the radio activity is counted in Microbia counter.

Assay [7] concerns the target T4, D(4) dopamine receptor (Homo sapiens, UniProt P21917).
T4 sequence (P21917 whole entry): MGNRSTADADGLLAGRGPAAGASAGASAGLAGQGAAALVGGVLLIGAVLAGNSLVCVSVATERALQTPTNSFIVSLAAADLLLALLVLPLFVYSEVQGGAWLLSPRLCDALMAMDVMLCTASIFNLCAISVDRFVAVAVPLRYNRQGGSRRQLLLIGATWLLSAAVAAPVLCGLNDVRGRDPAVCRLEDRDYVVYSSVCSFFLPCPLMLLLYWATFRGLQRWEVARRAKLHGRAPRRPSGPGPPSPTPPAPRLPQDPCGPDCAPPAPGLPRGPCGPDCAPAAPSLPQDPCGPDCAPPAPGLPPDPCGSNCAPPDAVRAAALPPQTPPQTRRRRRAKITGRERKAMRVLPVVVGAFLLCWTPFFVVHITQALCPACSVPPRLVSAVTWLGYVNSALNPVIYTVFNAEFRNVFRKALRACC
Description: PDSP Secondary Binding target: DRD4 - Compounds are tested at 10 uM concentration, plate are incubated at room temperature in the dark for 90 minutes. Reaction are stopped by vacuum filtration onto 0.3% polyethyleneimine soaked filter mats using Filtermate harvester. Scintillation cocktail is then melted onto microwave-dried filters on a hot plate and the radio activity is counted in Microbia counter.

The target in assay [8] is Beta-2 adrenergic receptor (Homo sapiens, UniProt P07550). Description: PDSP Secondary Binding target: ADRB2 - Compounds are tested at 10 uM concentration, plate are incubated at room temperature in the dark for 90 minutes. Reaction are stopped by vacuum filtration onto 0.3% polyethyleneimine soaked filter mats using Filtermate harvester. Scintillation cocktail is then melted onto microwave-dried filters on a hot plate and the radio activity is counted in Microbia counter.
Beta-2 adrenergic receptor, sequence (P07550 whole entry): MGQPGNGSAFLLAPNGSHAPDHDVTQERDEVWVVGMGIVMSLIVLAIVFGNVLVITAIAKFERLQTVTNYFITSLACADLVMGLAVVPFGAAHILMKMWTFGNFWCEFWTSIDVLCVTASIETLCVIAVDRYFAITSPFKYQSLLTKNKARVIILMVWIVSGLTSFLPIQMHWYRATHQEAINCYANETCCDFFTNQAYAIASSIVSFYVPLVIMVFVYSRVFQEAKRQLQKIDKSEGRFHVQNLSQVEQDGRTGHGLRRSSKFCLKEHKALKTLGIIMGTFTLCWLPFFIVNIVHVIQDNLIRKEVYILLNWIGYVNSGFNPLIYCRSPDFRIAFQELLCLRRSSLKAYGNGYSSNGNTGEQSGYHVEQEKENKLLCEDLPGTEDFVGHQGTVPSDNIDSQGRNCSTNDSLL

Molecules are shown by their SMILES. pKi: −log10 of the molar value. Structures can show the parent of a compound that is named as a salt. Where only a bound is given, the exact number is not on record here.

Histamine H3 receptor, sequence (Q9Y5N1 whole entry): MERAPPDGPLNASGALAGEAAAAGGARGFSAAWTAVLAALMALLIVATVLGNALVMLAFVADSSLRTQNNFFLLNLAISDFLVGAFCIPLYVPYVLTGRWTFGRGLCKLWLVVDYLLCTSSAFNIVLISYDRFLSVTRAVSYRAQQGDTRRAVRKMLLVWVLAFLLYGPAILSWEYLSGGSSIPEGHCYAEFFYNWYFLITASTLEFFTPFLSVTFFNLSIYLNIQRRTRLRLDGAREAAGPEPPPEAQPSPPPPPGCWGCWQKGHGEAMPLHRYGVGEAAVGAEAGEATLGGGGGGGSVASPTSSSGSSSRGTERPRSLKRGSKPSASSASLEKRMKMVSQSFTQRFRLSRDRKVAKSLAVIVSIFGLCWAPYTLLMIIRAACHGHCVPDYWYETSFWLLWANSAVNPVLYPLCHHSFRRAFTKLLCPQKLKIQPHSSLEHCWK
5-hydroxytryptamine receptor 1E, sequence (P28566 whole entry): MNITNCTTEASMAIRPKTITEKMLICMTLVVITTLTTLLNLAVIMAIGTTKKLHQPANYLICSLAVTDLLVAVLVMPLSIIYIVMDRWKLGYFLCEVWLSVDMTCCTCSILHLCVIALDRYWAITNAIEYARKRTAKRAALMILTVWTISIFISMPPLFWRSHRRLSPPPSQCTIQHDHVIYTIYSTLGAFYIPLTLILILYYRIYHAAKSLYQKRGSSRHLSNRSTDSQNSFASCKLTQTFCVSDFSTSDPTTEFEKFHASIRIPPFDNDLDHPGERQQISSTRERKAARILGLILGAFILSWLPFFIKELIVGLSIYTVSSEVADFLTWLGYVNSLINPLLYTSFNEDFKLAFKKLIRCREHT

Take `S=C(NCCCc1c[nH]cn1)NCCCN(Cc1ccc(Cl)c(Cl)c1)c1ccc(Br)cn1`: the negative logarithm of the Ki (pKi) (as a rule, −log10 of the Ki, conventionally taken in molar units) in assay [1] was 6.68; in assay [2] it was 6.98.
On to `CN1CCC(=C2c3ccccc3CC(=O)c3sccc32)CC1` [KETOTIFEN FUMARATE], for which the pKi in assay [3] is 6.04; in assay [4], 6.47.
Consider `COC(=O)C1=C(C)NC(C)=C(C(=O)OCCCN2CCC(c3ccccc3)(c3ccccc3)CC2)[C@H]1c1cccc([N+](=O)[O-])c1` [NIGULDIPINE], for which the values for the pKi in assay [1], in assay [2] and in assay [5] were 6.06, 5.67 and 6.27, respectively.
For `Clc1cccc(COc2cncc(N3CCNCC3)n2)c1`, the pKi in assay [3] was 6.35; in assay [6], 5.84; in assay [4] it was 7.20; in assay [5], 5.13.
As to `Cc1ccc2c(c1)c1c(n2CCc2ccc(C)nc2)CCN(C)C1` [LATREPIRDINE], the pKi in assay [6] was 5.25.
`O=S1(=O)c2cccc3cccc(c23)N1CCCN1CCN(c2ccc(F)cc2)CC1` [FANANSERIN]: the pKi in assay [1] was 5.96; in assay [7] it was 7.02; in assay [5], 6.29.
`COc1ccc(NS(=O)(=O)c2sc3ccc(Cl)cc3c2C)cc1N1CCNCC1` showed a pKi in assay [4] of 6.01.
For the compound `N#Cc1ccc2[nH]cc(CCCCN3CCN(c4ccc5oc(C(N)=O)cc5c4)CC3)c2c1` [VILAZODONE HYDROCHLORIDE], the pKi in assay [7] was 6.08; in assay [8] it was 5.60.
For `OCc1cc(C(O)CNCCCCCCOCCCCc2ccccc2)ccc1O` (stereo not drawn) [SALMETEROL], the pKi in assay [7] was 5.97.
In the case of `C[C@H](Cc1cc2c(c(C(N)=O)c1)N(CCCO)CC2)NCCOc1ccccc1OCC(F)(F)F` [SILODOSIN], the results for the pKi in assay [7], in assay [8] and in assay [5] were 5.80, 7.48 and 7.33, respectively.
As to `Cc1nc2sccn2c(=O)c1CCN1CCC(=C(c2ccc(F)cc2)c2ccc(F)cc2)CC1` [RITANSERIN], the pKi is 6.25 in assay [6], 6.25 in assay [1] and 6.62 in assay [7].
Regarding `COc1cc(-n2cnc3cc(-c4ccc(Cl)cc4)sc3c2=O)ccc1OCCN1CCCC1`, the pKi was 5.77 in assay [3] and less than 5.00 in assay [1].
For the compound `CCCCCNC(=N)N/N=C/c1c[nH]c2ccc(OC)cc12` [TEGASEROD MALEATE], the pKi was 6.72 in assay [7], 5.23 in assay [4] and 7.08 in assay [5].
For `CCOC(=O)c1c(C)[nH]c2ccc3c(c12)CN1CCc2cc(OC)ccc2C1O3` (stereo not drawn), the pKi in assay [3] is 7.33; in assay [4], 5.78.
In assay [3], `CN(C)C(=O)N[C@H]1CC[C@H](CCN2CCN(c3cccc(Cl)c3Cl)CC2)CC1` [CARIPRAZINE HYDROCHLORIDE] had a pKi of 6.11.
For `CCc1cc2c(cc1CC)CC(NC[C@H](O)c1ccc(O)c3[nH]c(=O)ccc13)C2` [INDACATEROL], the pKi in assay [1] was 6.11; in assay [8], 6.97.
On to `COc1ccc(NC(=O)c2ccc(-c3ccc(-c4noc(C)n4)cc3C)cc2)cc1OCCN(C)C`, for which the pKi in assay [6] was 6.01; in assay [1], 6.08; in assay [2], 6.15.
In turn, `C[C@@H](NCCCc1cccc(C(F)(F)F)c1)c1cccc2ccccc12` [CINACALCET HYDROCHLORIDE] gave a pKi in assay [5] of 5.71.
As to `CN1CCN(c2ccc(Nc3c4ccccc4nc4ccccc34)cc2)CC1`, the pKi is 5.94 in assay [1], 7.08 in assay [2] and 6.09 in assay [8].
Regarding `Cc1cn2cc(CC(=O)N3CCC4(CC3)CN(Cc3ccc(-n5nccn5)cc3Cl)C4)nc2s1`, the results for the pKi in assay [3], in assay [7] and in assay [8] were 6.74, 5.87 and less than 5.00, respectively.
In assay [4], `CN1C2CCC1CC(OC(c1ccc(F)cc1)c1ccc(F)cc1)C2` (stereo not drawn) had a pKi of 5.68.
`CN1CCCC(n2nc(Cc3ccc(Cl)cc3)c3ccccc3c2=O)CC1` (stereo not drawn) [AZELASTINE HYDROCHLORIDE] gave a pKi in assay [6] of 5.27.
For `NCCc1cn(S(=O)(=O)c2c(Cl)nc3sccn23)c2ccccc12`, the pKi in assay [2] is 5.70; in assay [4] it was 6.18.
Consider `Cc1c(P(=S)(c2ccccc2)c2ccccc2)n2ccccc2[n+]1C/C=C/c1ccccc1`, for which the pKi in assay [3] is 6.07.
With `CCCCN1CCC(COC(=O)c2cc(Cl)c(N)c3c2OCCO3)CC1`, the pKi in assay [4] is 5.88.
Compound `CCc1ccc(OCc2ccccc2C(=O)Nc2ccc3nc(C)cc(N)c3c2)cc1` showed a pKi in assay [3] of 5.71.
Compound `COc1cccc([C@@H](C)NCCCc2ccccc2Cl)c1` [TECALCET HYDROCHLORIDE] had a pKi in assay [5] of 5.84.
Consider `Cc1cc(C)cc(-c2cnc3cc(Cl)c(-c4cccc(O)c4)cc3c2OCCCN)c1`, for which the pKi in assay [6] was 5.24.
As to `CN1C[C@H](C(=O)N[C@]2(C)O[C@@]3(O)[C@@H]4CCCN4C(=O)[C@H](Cc4ccccc4)N3C2=O)C[C@@H]2c3cccc4[nH]cc(c34)C[C@H]21` [DIHYDROERGOTAMINE MESYLATE], the pKi in assay [6] is 6.17; in assay [7], 7.48; in assay [5], 7.41.
On to `Cc1nn(C)c(C)c1-c1cccc2c1CC[C@H](N(C)C)C2`, for which the pKi in assay [4] is 6.58; in assay [5] it was 5.62.
Take `O=c1ccc2ccc(OCCCCN3CCN(c4cccc5sccc45)CC3)cc2[nH]1` [BREXPIPRAZOLE]: the pKi in assay [6] is 6.32; in assay [1], 7.18; in assay [2], 5.58; in assay [7] it was 7.44; in assay [8], 6.01; in assay [4], 5.82. The pKi in assay [5] is 7.63.
As for `NC[C@@H]1O[C@H](C23CC4CC(CC(C4)C2)C3)Cc2c1ccc(O)c2O`, the pKi in assay [7] was 6.25.
The compound `CCc1nn(CCCN2CCN(c3cccc(Cl)c3)CC2)c(=O)n1CCOc1ccccc1` [NEFAZODONE HYDROCHLORIDE] had a pKi in assay [7] of 6.49. This pKi is 0.24 log units higher than that of the compound before.
